Like-named read-outs stand apart in the source and are kept apart here.
Target: T1, recombinant full-length USP7 (Homo sapiens, UniProt Q93009)
T1 construct: A 25 μl reaction volume containing recombinant full-length USP7 (62 pM)
Assay: USP7-mediated ubiquitin-rhodamine cleavage assay
Format: biochemical
Details: recombinant full-length USP7 62 pM, ubiquitin-rhodamine 100 nM, 1 hour reaction at room temperature
In short: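 USP7 (62 pM) in 20 mM HEPES pH 7.3, 150 mM NaCl, 1 mM TCEP, 125 μg/ml BSA was preincubated with compound (1% DMSO) for 30 min at room temperature. Ubiquitin-rhodamine (100 nM final) was then added for 1 hour, the reaction stopped with acetic acid, and fluorescence read; IC50 from 4-parameter fit.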

[1] = 30-minute incubation with compound, read-out: Potency: USP7 IC50
[2] = 30-minute pre-incubation, read-out: Potency (USP7 IC50)

T1 sequence (Q93009 whole entry): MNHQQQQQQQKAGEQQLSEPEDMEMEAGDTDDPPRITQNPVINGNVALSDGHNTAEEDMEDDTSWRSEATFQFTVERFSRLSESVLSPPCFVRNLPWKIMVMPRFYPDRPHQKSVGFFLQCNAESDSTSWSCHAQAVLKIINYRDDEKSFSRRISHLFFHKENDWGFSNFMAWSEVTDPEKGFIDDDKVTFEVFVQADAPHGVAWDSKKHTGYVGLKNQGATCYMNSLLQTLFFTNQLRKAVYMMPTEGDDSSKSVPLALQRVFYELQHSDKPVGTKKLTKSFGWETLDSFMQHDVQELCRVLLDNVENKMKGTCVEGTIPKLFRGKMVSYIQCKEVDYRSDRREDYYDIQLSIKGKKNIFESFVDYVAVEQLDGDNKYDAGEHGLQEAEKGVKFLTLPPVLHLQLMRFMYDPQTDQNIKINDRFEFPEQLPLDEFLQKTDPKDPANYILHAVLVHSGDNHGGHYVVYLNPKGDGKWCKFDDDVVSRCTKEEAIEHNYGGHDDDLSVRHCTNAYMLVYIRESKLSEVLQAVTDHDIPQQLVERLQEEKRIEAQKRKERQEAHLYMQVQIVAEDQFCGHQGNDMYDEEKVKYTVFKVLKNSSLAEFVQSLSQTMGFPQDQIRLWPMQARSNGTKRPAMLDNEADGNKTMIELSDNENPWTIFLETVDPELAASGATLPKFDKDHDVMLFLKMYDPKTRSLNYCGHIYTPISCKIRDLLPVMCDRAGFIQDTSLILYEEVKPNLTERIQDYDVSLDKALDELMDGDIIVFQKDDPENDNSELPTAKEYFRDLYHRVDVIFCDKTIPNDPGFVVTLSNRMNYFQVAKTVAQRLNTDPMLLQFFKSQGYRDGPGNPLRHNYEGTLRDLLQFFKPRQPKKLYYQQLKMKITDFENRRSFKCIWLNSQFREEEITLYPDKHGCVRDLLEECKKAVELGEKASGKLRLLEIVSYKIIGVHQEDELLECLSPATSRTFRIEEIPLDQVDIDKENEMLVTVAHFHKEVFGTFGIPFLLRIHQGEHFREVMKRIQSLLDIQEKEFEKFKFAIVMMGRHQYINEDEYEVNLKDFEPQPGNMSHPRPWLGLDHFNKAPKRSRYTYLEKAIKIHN

| Compound | IC50 [1] [µM] | further results |
| --- | --- | --- |
| CCC(O)c1cc2ncnc(-c3cc(Cl)cc(C)c3OCC3(C)CNC3)c2s1 (stereo not shown) [Example 47, 1-(4-(5-chloro-3-methyl-2-((3-methylazetidin-3-yl)methoxy)phenyl)thieno[3,2-d]pyrimidin-6-yl)propan-1-ol] | 1 to 10 | – |
| Cc1cc(Cl)cc(-c2ccnc3cc(CN4C(=O)C5CCCN5C4=O)sc23)c1O[C@@H]1CNC[C@@H]1F (stereo partly drawn) [Example 143, 2-((7-(5-Chloro-2-(((3R,4S)-4-fluoropyrrolidin-3-yl)oxy)-3-methylphenyl)thieno[3,2-b]pyridin-2-yl)methyl)tetrahydro-1H-pyrrolo[1,2-c] imidazole-1,3(2H)-dione] | < 1 | – |
| Cc1cc(Cl)cc(-c2ccnc3cc(Cn4c(=O)ccn(CC(F)(F)F)c4=O)sc23)c1O[C@@H]1CN(C2CC(C(F)(F)F)C2)C[C@@H]1C (stereo partly drawn) [Example 644, 3-[[7-[5-chloro-3-methyl-2-[(3S,4S)-4-methyl-1-[3-(trifluoromethyl)cyclobutyl]pyrrolidin-3-yl]oxy-phenyl]thieno[3,2-b]pyridin-2-yl]methyl]-1-(2,2,2-trifluoroethyl)pyrimidine-2,4-dione] | – | IC50 [2]: < 1 µM |
| Cc1cc(Cl)cc(-c2ccnc3cc(Cn4c(=O)ccn(C)c4=O)sc23)c1O[C@H]1CCNC[C@H]1C [Example 453] | – | IC50 [2]: < 1 µM |
| Cc1c(F)c(Cl)cc(-c2ccnc3cc(CN4C(=O)CCC4=O)sc23)c1O[C@H]1CCCNC1 [Example 433, 1-[[7-[5-chloro-4-fluoro-3-methyl-2-[[(3S)-3-piperidyl]oxy]phenyl]thieno[3,2-b]pyridin-2-yl]methyl]pyrrolidine-2,5-dione; 2,2,2-trifluoroacetic acid] | – | IC50 [2]: 1 to 10 µM |
| Cc1cc(C#N)cc(-c2ccnc3cc(CO)sc23)c1OCC1(C#N)CNC1 [Example 11, 3-((4-Cyano-2-(2-(hydroxymethyl)thieno[3,2-b]pyridin-7-yl)-6-methylphenoxy)methyl)azetidine-3-carbonitrile] | 1 to 10 | – |
| Cc1cc(Cl)cc(-c2ccnc3cc(CO)sc23)c1O[C@@H]1CC[C@@H](N(C)C)C1 [Example 93, (7-(5-Chloro-2-(((1R,3R)-3-(dimethylamino)cyclopentyl)oxy)-3-methylphenyl)thieno[3,2-b]pyridin-2-yl)methanol] | 10 to 30 | – |
| CCC(O)c1cc2nccc(-c3cc(Cl)cc(C)c3OC3CCNCC3)c2s1 (stereo not shown) [Example 261, 1-(7-(5-Chloro-3-methyl-2-(piperidin-4-yIoxy)phenyl)thieno[3,2-b]pyridin-2-yl)propan-1-ol] | 1 to 10 | – |
| Cc1cc(C#N)cc(-c2ncnc3cc(CN4C(=O)CCC4=O)sc23)c1O[C@@H]1CNC[C@@H]1F [Example 109, 3-(6-((2,5-Dioxopyrrolidin-1-yl)methyl)thieno[3,2-d]pyrimidin-4-yl)-4-(((3R,4S)-4-fluoropyrrolidin-3-yl)oxy)-5-methylbenzonitrile] | < 1 | – |
| Cc1cc(Cl)cc(-c2ncnc3cc(Cn4c(=O)ccn(CC(F)(F)F)c4=O)sc23)c1O[C@H]1CCCN(C)C1 [Example 521, 3-[[4-[5-chloro-3-methyl-2-[[(3S)-1-methyl-3-piperidyl]oxy]phenyl]thieno[3,2-d]pyrimidin-6-yl]methyl]-1-(2,2,2-trifluoroethyl)pyrimidine-2,4-dione] | – | IC50 [2]: < 1 µM |
| Cc1cc(Cl)cc(-c2ccnc3cc(CO)sc23)c1O[C@@H]1CN[C@H](CO)C1 [Example 77, (7-(5-Chloro-2-(((3S,5S)-5-(hydroxymethyl)pyrrolidin-3-yl)oxy)-3-methylphenyl)thieno[3,2-b]pyridin-2-yl)methanol] | 10 to 30 | – |
| CCC(O)c1cc2nccc(-c3cc(Cl)cc(C)c3O[C@H]3C[C@H]4CC[C@@H](C3)N4)c2s1 (stereo partly drawn) [Example 199, 1-(7-(2-(((1R,3r,5S)-8-Azabicyclo[3.2.1]octan-3-yl)oxy)-5-chloro-3-methylphenyl)thieno[3,2-b]pyridin-2-yl)propan-1-ol] | 1 to 10 | – |
| Cc1cc(C(F)(F)F)cc(-c2ccnc3cc(Cn4c(=O)[nH]cc(F)c4=O)sc23)c1O[C@@H]1CNC[C@@H]1F [Example 136, 5-Fluoro-3-((7-(2-(((3R,4S)-4-fluoropyrrolidin-3-yl)oxy)-3-methyl-5-(trifluoromethyl)phenyl)thieno[3,2-b]pyridin-2-yl)methyl)pyrimidine-2,4(1H,3H)-dione] | < 1 | – |
| Cc1cc(Cl)cc(-c2ccnc3c(F)c(CN4C(=O)CCC4=O)sc23)c1OC1CCNCC1 [Example 242, 1-((7-(5-Chloro-3-methyl-2-(piperidin-4-yloxy)phenyl)-3-fluorothieno[3,2-b]pyridin-2-yl)methyl)pyrrolidine-2,5-dione] | < 1 | – |
| Cc1cc(Cl)cc(-c2ccnc3cc(Cn4c(=O)ccn(CC(F)(F)F)c4=O)sc23)c1O[C@@H]1CCNC[C@@H]1C [Example 173, 3-((7-(5-Chloro-3-methyl-2-(((3S,4R)-3-methylpiperidin-4-yl)oxy)phenyl)thieno[3,2-b]pyridin-2-yl)methyl)-1-(2,2,2-trifluoroethyl)pyrimidine-2,4(1H,3H)-dione] | < 1 | – |
| Cc1cc(Cl)cc(-c2ccnc3cc(CN4C(=O)CCC4=O)sc23)c1OC1CCNC1C (stereo not shown) [Example 118, 1-((7-(5-Chloro-3-methyl-2-((2-methylpyrrolidin-3-yl)oxy)phenyl)thieno[3,2-b]pyridin-2-yl)methyl)pyrrolidine-2,5-dione] | < 1 | – |
| Cc1cc(C(F)(F)F)cc(-c2ccnc3cc(CN4C(=O)CCC4=O)sc23)c1OC1CCNCC1 [Example 253, 1-((7-(3-Methyl-2-(piperidin-4-yloxy)-5-(trifluoromethyl)phenyl)thieno[3,2-b]pyridin-2-yl)methyl)pyrrolidine-2,5-dione] | < 1 | – |
| Cc1cc(Cl)cc(-c2ncnc3cc(CN4C(=O)C5CCCN5C4=O)sc23)c1O[C@@H]1CNC[C@@H]1F (stereo partly drawn) [Example 160, 2-((4-(5-Chloro-2-(((3R,4S)-4-fluoropyrrolidin-3-yl)oxy)-3-methylphenyl)thieno[3,2-d]pyrimidin-6-yl)methyl)tetrahydro-1H-pyrrolo[1,2-c]imidazole-1,3(2H)-dione] | 1 to 10 | – |
| Cc1cc(Cl)cc(-c2ccnc3cc(Cn4c(=O)ccn(CC(F)(F)F)c4=O)sc23)c1OC1C=CCNC1 (stereo not shown) [Example 631, 3-[[7-[5-chloro-3-methyl-2-(1,2,3,6-tetrahydropyridin-3-yloxy)phenyl]thieno[3,2-b]pyridin-2-yl]methyl]-1-(2,2,2-trifluoroethyl)pyrimidine-2,4-dione] | – | IC50 [2]: < 1 µM |
| Cc1cc(Cl)cc(-c2ccnc3cc(Cn4c(=O)ccn(CC(F)(F)F)c4=O)sc23)c1O[C@H]1CCNC[C@@H]1C [Example 629, 3-[[7-[5-chloro-3-methyl-2-[[(3S,4S)-3-methyl-4-piperidyl]oxy]phenyl]thieno[3,2-b]pyridin-2-yl]methyl]-1-(2,2,2-trifluoroethyl)pyrimidine-2,4-dione] | – | IC50 [2]: < 1 µM |
| 1-((4-(5-Chloro-2-(((3R,4S)-4-fluoropyrrolidin-3-yl)oxy)-3-methylphenyl)thieno[3,2-d]pyrimidin-6-yl)methyl)pyrrolidine-2,5-dione [Example 96] | < 1 | – |
| Cc1cc(Cl)cc(-c2ccnc3cc(CO)sc23)c1O[C@H]1CNC[C@H]1F [Example 67, (7-(5-Chloro-2-(((3S,4R)-4-fluoropyrrolidin-3-yl)oxy)-3-methylphenyl)thieno[3,2-b]pyridin-2-yl)methanol] | 10 to 30 | – |
| O=C1CCC(=O)N1Cc1cc2nccc(-c3cc(Cl)cc(C(F)(F)F)c3O[C@@H]3CNC[C@@H]3F)c2s1 [Example 120, 1-((7-(5-Chloro-2-(((3R,4S)-4-fluoropyrrolidin-3-yl)oxy)-3-(trifluoromethyl)phenyl)thieno[3,2-b]pyridin-2-yl)methyl)pyrrolidine-2,5-dione] | < 1 | – |
| Cc1cc(Cl)cc(-c2ccnc3cc(Cn4c(=O)ccn(CC(F)(F)F)c4=O)sc23)c1OC1CC(N2CC(O)C2)C1 (stereo not shown) [Example 700, 3-[[7-[5-chloro-2-[3-(3-hydroxyazetidin-1-yl)cyclobutoxy]-3-methyl-phenyl]thieno[3,2-b]pyridin-2-yl]methyl]-1-(2,2,2-trifluoroethyl)pyrimidine-2,4-dione; 2,2,2-trifluoroacetic acid] | – | IC50 (30-minute incubation, read-out: Potency (USP7 IC50)): < 1 µM |
| Cc1cc(Cl)cc(-c2ccnc3cc(Cn4c(=O)ccn(C)c4=O)sc23)c1O[C@@H]1CNCC[C@@H]1F [Example 570, 3-[[7-[5-chloro-2-[[(3R,4S)-4-fluoro-3-piperidyl]oxy]-3-methyl-phenyl]thieno[3,2-b]pyridin-2-yl]methyl]-1-methyl-pyrimidine-2,4-dione] | – | IC50 [2]: < 1 µM |
| Cc1cc(C(F)(F)F)cc(-c2ccnc3cc(Cn4c(=O)ccn(C)c4=O)sc23)c1O[C@@H]1CNC[C@@H]1F [Example 132, 3-((7-(2-(((3R,4S)-4-Fluoropyrrolidin-3-yl)oxy)-3-methyl-5-(trifluoromethyl)phenyl)thieno[3,2-b]pyridin-2-yl)methyl)-1-methylpyrimidine-2,4(1H,3H)-dione] | < 1 | – |
| Cc1cc(Cl)cc(-c2ccnc3cc(CN4C(=O)CCC4=O)sc23)c1O[C@@H]1CNC[C@@H]1CF [Example 108, 1-((7-(5-Chloro-2-(((3S,4S)-4-(fluoromethyl)pyrrolidin-3-yl)oxy)-3-methylphenyl)thieno[3,2-b]pyridin-2-yl)methyl)pyrrolidine-2,5-dione] | < 1 | – |
| Cc1cc(Cl)cc(-c2ccnc3cc(CN4C(=O)CCC4=O)sc23)c1OC1CC2(CCN2)C1 (stereo not shown) [Example 439, 1-[[7-[2-(1-azaspiro[3.3]heptan-6-yloxy)-5-chloro-3-methyl-phenyl]thieno[3,2-b]pyridin-2-yl]methyl]pyrrolidine-2,5-dione; 2,2,2-trifluoroacetic acid] | – | IC50 [2]: < 1 µM |
